Laboratory results as given in ChEMBL document CHEMBL1134595, “Exploration of novel aryl binding sites of farnesyltransferase using molecular modeling and benzophenone-based farnesyltransferase inhibitors” (J Med Chem, 2001).

biological target: T1, Farnesyltransferase (Saccharomyces cerevisiae S288c, UniProt P22007+P29703); assay: Inhibitory activity against yeast farnesyltransferase; format: protein-complex assay
T1 sequence (P29703 whole entry): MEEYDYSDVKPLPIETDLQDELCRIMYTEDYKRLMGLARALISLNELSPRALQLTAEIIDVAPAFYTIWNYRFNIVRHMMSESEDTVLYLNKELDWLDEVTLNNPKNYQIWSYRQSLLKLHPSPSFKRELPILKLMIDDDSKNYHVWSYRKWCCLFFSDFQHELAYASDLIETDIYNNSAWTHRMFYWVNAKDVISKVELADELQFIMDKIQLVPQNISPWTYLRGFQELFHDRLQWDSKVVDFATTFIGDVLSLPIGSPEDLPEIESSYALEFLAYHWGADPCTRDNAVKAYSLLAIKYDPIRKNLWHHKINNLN
T1 sequence (P22007 whole entry): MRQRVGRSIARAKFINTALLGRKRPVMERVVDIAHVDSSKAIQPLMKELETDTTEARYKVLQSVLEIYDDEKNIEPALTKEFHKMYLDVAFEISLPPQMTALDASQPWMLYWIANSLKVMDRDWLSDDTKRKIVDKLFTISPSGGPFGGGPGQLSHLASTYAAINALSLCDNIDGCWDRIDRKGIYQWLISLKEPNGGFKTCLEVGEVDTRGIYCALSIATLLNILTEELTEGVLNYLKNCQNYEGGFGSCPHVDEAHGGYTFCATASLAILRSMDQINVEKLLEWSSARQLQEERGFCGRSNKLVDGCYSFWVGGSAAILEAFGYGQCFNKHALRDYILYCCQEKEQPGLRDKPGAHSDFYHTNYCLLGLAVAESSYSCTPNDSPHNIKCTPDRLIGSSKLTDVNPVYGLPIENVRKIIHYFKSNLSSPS

Row | IC50 [nM] | SMILES
1 | 1100 | Cc1ccc(CC(=O)Nc2ccc(NC(=O)CCCCCc3ccccc3)cc2C(=O)c2ccccc2)cc1
2 | 2000 | Cc1ccc(CC(=O)Nc2ccc(NC(=O)Cc3ccccc3)cc2C(=O)c2ccccc2)cc1
3 | 12 | CCC(C)[C@@H](CN(CC(=O)N[C@@H](CCSC)C(=O)O)Cc1cccc2ccccc12)NC(=O)CC1CN(Cc2ccc(C#N)cc2)C=N1 (some centres undefined)
4 | 6000 | Cc1ccc(CC(=O)Nc2ccc(NC(=O)c3ccccc3)cc2C(=O)c2ccccc2)cc1
5 | 390 | Cc1ccc(CC(=O)Nc2ccc(NC(=O)CCCCc3ccccc3)cc2C(=O)c2ccccc2)cc1
6 | 530 | Cc1ccc(CC(=O)Nc2ccc(NC(=O)CCCc3ccccc3)cc2C(=O)c2ccccc2)cc1
7 | 0.1 | CSCC[C@H](NC(=O)c1ccc(CN(Cc2ccccc2)c2cccnc2)cc1-c1ccccc1C)C(=O)O
8 | 0.4 | CSCC[C@H](NC(=O)c1ccc(COc2cccnc2)cc1-c1ccccc1C)C(=O)O
9 | 455 | Cc1ccc(CC(=O)Nc2ccc(NC(=O)/C=C/c3csc(-c4ccc([N+](=O)[O-])cc4)n3)cc2C(=O)c2ccccc2)cc1
10 | 5.4 | CCC(C)[C@@H](CN(CC(=O)N[C@@H](CCSC)C(=O)O)Cc1cccc2ccccc12)NC(=O)CSCc1ccc(C#N)cc1 (some centres undefined)
11 | 6 | CSCC[C@H](NC(=O)c1ccc(COCc2ccc(-c3ccccc3)o2)cc1-c1ccccc1)C(=O)O
12 | 925 | Cc1ccc(CC(=O)Nc2ccc(NC(=O)/C=C/c3ccc(-c4ccc(Br)cc4)o3)cc2C(=O)c2ccccc2)cc1
13 | 6300 | Cc1ccc(CC(=O)Nc2ccc(NC(=O)/C=C/c3ccc(-c4ccc(Cl)cc4)o3)cc2C(=O)c2ccccc2)cc1
14 | 2000 | Cc1ccc(CC(=O)Nc2ccc(NC(=O)CCc3ccccc3)cc2C(=O)c2ccccc2)cc1
